Literature values as cited in US20160058814A1, “PLANT EXTRACTS AND RELATED COMPOSITIONS, METHODS AND SYSTEMS” (priority 2014, published 2016).

Conditions: in vivo

In the case of `O=c1ccc2ccccc2o1` [Coumarin, coumarin], the LD50 is listed as 275 mg/kg.
